Key:
Format in all cases: in vivo
[1] = test system: 6 Hz-induced psychomotor seizures in CD-1 mice; experiment: 6 Hz psychomotor seizure test; conditions: for mice protected from psychomotor seizure / incidence of psychomotor seizures: 1 h pretreatment; for incidence of psychomotor seizures: vs Vehicle
Text: Male, experimentally naive CD-1 mice were used in these experiments. At a defined time following drug or vehicle pretreatment, all mice received an electrical stimulus (6 Hz, 0.2 ms pulse width, 3 s duration, 32 mA) via corneal electrodes moistened with saline (ECT unit 57800; Ugo Basile). Preliminary experiments established that these stimulus parameters elicited a psychomotor seizure, defined as the expression of at least one of the following behaviors: stun/immobility, forelimb clonus, straub tail, lateral head movement, in >95% of control animals. Protection was defined as complete absence of all the above behaviors within 20 s of stimulus delivery. The effective dose of compound necessary to protect against psychomotor seizures to 50% of controls (i.e. ED50) was determined by curve fitting program.
(§1) Male mice (body wt. 20-40 g) were used for all studies. Mice were used in one of the following 4 seizure tests: maximal electroshock seizure (MES) test, subcutaneous injection of pentylenetetrazol (scPTZ) test, seizures induced by 6 Hz stimulation (6 Hz), and corneal kindled seizures. These tests were selected because no single test detects all known anti-epileptic drugs (AED's), but all currently known AED's are detected as active (i.e. prevent seizures) in at least one of these tests. Subjects were tested in one of the 4 seizure tests following a defined time after treatment with either test drug or vehicle control. Following administration of test drug or vehicle by either the oral, subcutaneous or intraperitoneal route, the animals were tested according to one of the methods outlined below (1-4). Typically the pretreatment time was 60 minutes although in some cases this varied from 30 min to 4 h.
3. 6 Hz Psychomotor Seizure Test:
Male CD-1 mice received an electrical stimulus (6 Hz, 0.2 ms pulse width, 3 s duration, 32 mA) via corneal electrodes moistened with saline (ECT unit 57800; Ugo Basile). These stimulus parameters should elicit a psychomotor seizure, defined as the expression of at least one of the following behaviours: stun/immobility, forelimb clonus, straub tail, vibrissae tremor, lateral head movement, in >95% of control animals within 30 s of stimulus delivery. To establish drug efficacy, test drug or vehicle was administered at a defined timepoint prior to the 6 Hz test, to separate experimental groups. The effect of treatment on subsequent seizure was noted. Protection is defined as complete absence of all the above behaviours within 20 s of stimulus delivery. The experiment was terminated immediately once the endpoint was met.

[2] = test system: MES-induced tonic seizures in CD-1 mice; experiment: Maximal electroshock test (MES test)
Text: as §1
1. Maximal Electroshock Test (MES Test):
Male CD-1 mice received a maximal electroshock (45 mA, 0.2 s duration, 60 Hz) via corneal electrodes moistened with saline (shock stimulator type 221; Harvard apparatus). This stimulus intensity should elicit a full tonic seizure in >95% of control animals. Protection is defined as absence of a full tonic seizure within 15 s of stimulus delivery. To establish drug efficacy, test drug or vehicle was administered at a defined timepoint prior to the MES test, to separate experimental groups. The experiment was terminated immediately once the endpoint was met.

[3] = test system: scPTZ-induced seizures in CD-1 mice; experiment: s.c. pentylenetetrazol seizure test (scPTZ test)
Text: as §1
2. s.c. Pentylenetetrazol Seizure Test (PTZ Test):
Male CD-1 mice received a single subcutaneous injection of pentylenetetrazol (PTZ: 85 mg/kg). This dose of PTZ should elicit a clonic seizure in >95% of control animals. Following PTZ injection, the animals were immediately transferred to single observation cages and observed continuously for 30 min. To establish drug efficacy, test drug or vehicle was administered at a defined timepoint prior to the PTZ administration, to separate experimental groups. The effect of treatment on subsequent seizure was noted. Protection is defined as complete absence of a clonic seizure, including a forelimb clonus, over the 30 min observation period. In the event of a seizure, the onset latency from PTZ injection was recorded. The experiment was terminated immediately once the endpoint was met, or in the case of protection, at the completion of the 30 min test period.

[4] = test system: corneal kindled seizures in CD-1 mice; experiment: Mouse corneal kindling; conditions: 75 and 300 mg/kg; IP and oral routes
Text: as §1
4. Mouse Corneal Kindling:
Male CD-1 mice (body wt. 20-40 g) were used for these studies. There are 3 phases to the procedure: (1) kindling development phase, (2) kindling stability/persistence phase, and (3) drug testing phase.
1. […]
Drug testing was conducted using a repeated measures design with mice receiving up to 4 doses of a test drug and control treatments in a counterbalanced sequence. […] For each stimulation, the kindling score was assessed according to the Racine (1972) rating scale. […]

[5] = 75-600 mg/kg IP and oral routes
[6] = 37.5-600 mg/kg IP and oral routes
[7] = 150, 300 and 600 mg/kg IP and 600 mg/kg oral

SMILES	incidence of psychomotor seizures [1, 5]	mice protected from psychomotor seizure ([1]; 300-600 mg/kg IP)	6 Hz EC50 (mg/kg) ([1]; Dose route IP)	6 Hz EC50 (mmol/kg) ([1]; Dose route IP)	6 Hz EC50 (mg/kg) ([1]; Dose route PO)	6 Hz EC50 (mmol/kg) ([1]; Dose route PO)	MES EC50 (mg/kg) ([2]; Dose route IP)	MES EC50 (mmol/kg) ([2]; Dose route IP)	MES EC50 (mg/kg) ([2]; Dose route PO)	MES EC50 (mmol/kg) ([2]; Dose route PO)	ScPTZ EC50 (mg/kg) ([3]; Dose route IP)	ScPTZ EC50 (mmol/kg) ([3]; Dose route IP)	ScPTZ EC50 (mg/kg) ([3]; Dose route PO)	ScPTZ EC50 (mmol/kg) ([3]; Dose route PO)	also measured
CCCCCCCCC(=O)NCC1(CC(=O)O)CCCCC1 [compound 4, 2-(1-(nonanamidomethyl)cyclohexyl)acetic acid]															mice protected from psychomotor seizure ([1]; 600 mg/kg IP): all mice; mice protected from psychomotor seizure ([1]; 600 mg/kg oral): No mice; incidence of psychomotor seizures ([1]; 150-600 mg/kg IP): dose-related decrease in the incidence of seizures
CCCCCCCCCC(=O)NC[C@H](CC(=O)O)CC(C)C [compound 14, (S)-3-(decanamidomethyl)-5-methylhexanoic acid]	dose-related decrease in the incidence of seizures	all mice													
CCCCCCCC(=O)NC(=O)[C@H](CC)N1CCCC1=O [compound 20, (S)—N-(2-(2-oxopyrrolidin-1-yl)butanoyl)octanamide]			90 mg/kg	0.3 mmol/kg	130 mg/kg	0.44 mmol/kg	>600 mg/kg	>2.02 mmol/kg	>600 mg/kg	>2.02 mmol/kg	>600 mg/kg	>2.02 mmol/kg	>600 mg/kg	>2.02 mmol/kg	6 Hz-induced seizures vs vehicle control (FIG. 8) ([1]; 75, 150, 300 or 600 mg/kg 1 hr pre-stimulation, 300 mg/kg at 2 and 4 hr, oral or IP): reduced seizures; MES-induced tonic seizures vs vehicle control (FIG. 7) ([2]; 600 mg/kg IP): reduced seizures; scPTZ-induced seizures vs vehicle control (FIG. 9) ([3]; 300 and 600 mg/kg IP): reduced seizures; corneal kindled seizures (Racine kindling score) vs vehicle control (FIG. 10) [4]: reduced seizures
CCCCCCCCC(=O)NC(=O)[C@H](CC)N1CCCC1=O [compound 21, (S)—N-(2-(2-oxopyrrolidin-1-yl)butanoyl)nonanamide]	dose-related decrease in the incidence of seizures	all mice													
CCCCCCCCCC(=O)NC(=O)[C@H](CC)N1CCCC1=O [compound 22, (S)—N-(2-(2-oxopyrrolidin-1-yl)butanoyl)decanamide]	dose-related decrease in the incidence of seizures														mice protected from psychomotor seizure ([1]; 600 mg/kg IP): all mice
CCCCC(CC)CCC(=O)NC(=O)[C@H](CC)N1CCCC1=O (stereo partly drawn) [compound 25, 4-ethyl-N—((S)-2-(2-oxopyrrolidin-1-yl)butanoyl)octanamide]		all mice	46 mg/kg	0.14 mmol/kg	50 mg/kg	0.15 mmol/kg	397 mg/kg	1.22 mmol/kg	>600 mg/kg	>1.85 mmol/kg	310 mg/kg	0.95 mmol/kg	600 mg/kg	1.85 mmol/kg	incidence of psychomotor seizures [1, 6]: dose-related decrease in the incidence of seizures; MES-induced tonic seizures vs vehicle control (FIG. 11) [2, 7]: reduced seizures; scPTZ-induced seizures (incidence, onset latency) vs vehicle control (FIGS. 12-13) [3, 7]: reduced seizures
CCCCC1CCC(C(=O)NC(=O)[C@H](CC)N2CCCC2=O)CC1 (stereo partly drawn) [compound 26, (S)-4-butyl-N-(2-(2-oxopyrrolidin-1-yl)butanoyl)cyclohexane-1-carboxamide]		all mice	80 mg/kg	0.24 mmol/kg	88 mg/kg	0.26 mmol/kg	>600 mg/kg	>1.78 mmol/kg	>600 mg/kg	>1.78 mmol/kg	230 mg/kg	0.68 mmol/kg	300 mg/kg	0.89 mmol/kg	incidence of psychomotor seizures [1, 6]: dose-related decrease in the incidence of seizures; MES-induced tonic seizures vs vehicle control (FIG. 14) ([2]; 300 and 600 mg/kg IP and 600 mg/kg oral): reduced seizures; scPTZ-induced seizures (incidence, onset latency) vs vehicle control (FIGS. 15-16) [3, 7]: reduced seizures

Source: patent US9481637B2, “Compounds for the treatment of seizures and other central nervous systems disorders and conditions” (Ketogen Inc., priority 2014, dated 2016)
